Experimental data: paper PMC5469366 (Journal of medicinal chemistry, 2017)
Where “and” joins values, the source holds several entries; their conditions need not be identical. Equal entries are not always repeated.

Assays:
[1] = test system: A. baumannii (ATCC 19606); experiment: Micro dilution broth checkerboard; assay type: cell-based, Acinetobacter baumannii; conditions: wells at growth–no growth interface
A. baumannii (ATCC19606) [2] = experiment: Mouse septicemia model, survival; assay type: in vivo, C57BL/6 mice
[3] = in vivo; cited from earlier work
A. baumannii (ATCC19606) [4] = experiment: Spontaneous mutation frequency on agar; assay type: cell-based, Acinetobacter baumannii; conditions: 4xMIC concentration
Caco-2 permeability = assay type: in vitro ADME; conditions: human
[5] = test system: MDR-A. baumannii ATCC BAA-1800; experiment: MIC/MBC broth dilution, MDR A. baumannii; assay type: cell-based, Acinetobacter baumannii; conditions: for MBC / MIC: MDR-A. baumannii ATCC BAA-1800, broth dilution
A. baumannii ATCC 19606 = experiment: MIC/MBC broth dilution, drug sensitive A. baumannii; assay type: cell-based, Acinetobacter baumannii; conditions: for MBC: kills 99.9% of bacteria
Vero cells = experiment: Cytotoxicity; assay type: cell-based, monkey; conditions: MTT assay
[6] = combination of valnemulin and doxycycline

| Compound | MIC CA and CB (concentrations of A and B in combination) [1, 6] | MIC (A. baumannii ATCC 19606) | MBC (A. baumannii ATCC 19606) | MBC [5] | MIC [5] | further results |
| --- | --- | --- | --- | --- | --- | --- |
| C[C@H]1c2cccc(O)c2C(=O)C2=C(O)[C@]3(O)C(=O)C(C(N)=O)=C(O)[C@@H](N(C)C)[C@@H]3[C@@H](O)[C@@H]21.O [Doxycycline, doxycycline] | 0.025 µg/mL and 0.05 µg/mL | – | – | – | – | MIC CA and CB (concentrations of A and B in combination) ([1]; combination of 1 and doxycycline): 0.025 µg/mL and 0.05 µg/mL |
| NC[C@H]1O[C@H](O[C@H]2[C@H](O)[C@@H](O[C@H]3O[C@H](CO)[C@@H](O)[C@H](N)[C@H]3O)[C@H](N)C[C@@H]2N)[C@H](N)C[C@@H]1O [Tobramycin, tobramycin] | – | – | – | – | – | survival of mice (A. baumannii (ATCC19606) [2]; 6.0 mg/kg dose IP): survived the mice |
| C=C[C@]1(C)C[C@@H](OC(=O)CSC(C)(C)CNC(=O)[C@H](N)C(C)C)[C@]2(C)[C@H](C)CC[C@]3(CCC(=O)[C@H]32)[C@@H](C)[C@@H]1O [Valnemulin, valnemulin] | 0.78 µg/mL and 1.56 µg/mL | – | – | – | – | half-lives in plasma [3]: 1.3 to 2.9 h |
| C=C[C@]1(C)C[C@@H](OC(=O)CSC(C)(C)CNC(=O)[C@H](N)C(C)C)[C@]2(C)[C@H](C)CC[C@]3(CC[C@@H](O)[C@H]32)[C@@H](C)[C@@H]1O [compound 1, (3R,3aR,4R,5R,7S,8S,9R,9aS,12R)-3,8-dihydroxy-4,7,9,12-tetramethyl-7-vinyldecahydro-4,9a-propanocyclopenta[8]annulen-5-yl 2-((1-((R)-2-amino-3-methylbutanamido)-2-methylpropan-2-yl)thio)acetate] | – | – | – | – | – | spontaneous resistance mutation frequency (A. baumannii (ATCC19606) [4]): 1×10^−8; effectiveness in mouse septicemia model (A. baumannii (ATCC19606) [2]; IP single dose, 2 to 60 mg/kg): showed effectiveness in the same in vivo studies, but required higher dosage than that with 1-Dox35/1; Papp (Caco-2 permeability): > 1 ×10⁻⁶ cm/s; concentrations at which the MDR strain was killed ([5]; A. baumannii ATCC BAA-1800): 6.25 to 12.5 µg/mL |
| (3R,3aR,4R,5R,7S,8S,9R,9aS,12R)-3,8-dihydroxy-4,7,9,12-tetramethyl-7-vinyldecahydro-4,9a-propanocyclopenta[8]annulen-5-yl 2-((1-((R)-2-((S)-2,5-diaminopentanamido)-3-methylbutanamido)-2-methylpropan-2-yl)thio)acetate [compound 2] | – | 3.13 µg/mL | >12.5 µg/mL | >12.5 µg/mL | 3.13 µg/mL | – |
| colistin | – | 3.13 µg/mL | 6.25 µg/mL | 25.0 µg/mL | >12.5 µg/mL | Cytotoxicity IC50 (Vero cells): > 200 µg/mL |
